{
  "source": "paper PMC11299021",
  "about": "“Machine learning-assisted substrate binding pocket engineering based on structural information” (Briefings in Bioinformatics, 2024)",
  "biological_target": "T1, KvAP (Klebsiella variicola acid phosphatase) (Klebsiella variicola, UniProt B5XS64)",
  "T1 construct": "gene KPK_3238; synthetic gene in pET-22b (NdeI/BlpI), E. coli BL21(DE3); His-Trap and Superdex 75 purified",
  "T1 sequence (B5XS64 20-248)": "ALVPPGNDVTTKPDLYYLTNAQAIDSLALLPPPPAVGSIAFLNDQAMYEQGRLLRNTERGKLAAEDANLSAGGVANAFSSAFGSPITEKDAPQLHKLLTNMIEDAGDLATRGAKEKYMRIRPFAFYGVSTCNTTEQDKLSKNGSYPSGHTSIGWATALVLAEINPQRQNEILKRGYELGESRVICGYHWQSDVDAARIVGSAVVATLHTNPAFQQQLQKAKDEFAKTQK",
  "assay": "p-nitrophenol release at […] nm (specific activity)",
  "type": "biochemical",
  "details": "200 mM p-NPP disodium salt, 50 mM acetate pH 5.0, 37 °C, 20 min",
  "data": [
    {"smiles": "O=[N+]([O-])c1ccc(OP(=O)(O)O)cc1", "note": "[p-NPP]", "values": [
      {"measurement": "p-nitrophenol release at 405 nm (specific activity)", "value": "The purified enzyme was used for measuring its activity against nitrophenyl phosphate (p-NPP)"}
    ]}
  ]
}
